{
  "source": "patent US20220226343A1",
  "about": "“3-AMINO-4-[4-[4 (DIMETHYLCARBAMOYL) PHENYL]-1,4-DIAZEPAN-1-YL]THIENO[2,3-B]PYRIDINE-2-CARBOXAMIDE FOR USE IN CANCER THERAPY AND FORMULATIONS COMPRISING THE SAME” (University of South Carolina, priority 2019, published 2022)",
  "key": {"[1]": {"assay": "Solubility of 15u in aqueous solution and vehicles"}, "[2]": {"assay": "Maximum solubility of 15u in individual excipients", "type": "physicochemical", "set-up": "key to XRPD Pattern (API = A): API = A", "experimental": "The binary mixtures were incubated on a shaker with temperature control either at 25° C. or 40° C. for at least 48 hours. The mixtures were filtered with 0.45 μm filters to separate the solid and liquid portions. PLC was performed on the on the liquid portion to determine the maximum solubility. XRPD was performed on the collected solid to check polymorph change."}, "CSNK1D": {"biological_target": "CSNK1D (Homo sapiens, UniProt P48730)", "sequence (P48730 whole entry)": "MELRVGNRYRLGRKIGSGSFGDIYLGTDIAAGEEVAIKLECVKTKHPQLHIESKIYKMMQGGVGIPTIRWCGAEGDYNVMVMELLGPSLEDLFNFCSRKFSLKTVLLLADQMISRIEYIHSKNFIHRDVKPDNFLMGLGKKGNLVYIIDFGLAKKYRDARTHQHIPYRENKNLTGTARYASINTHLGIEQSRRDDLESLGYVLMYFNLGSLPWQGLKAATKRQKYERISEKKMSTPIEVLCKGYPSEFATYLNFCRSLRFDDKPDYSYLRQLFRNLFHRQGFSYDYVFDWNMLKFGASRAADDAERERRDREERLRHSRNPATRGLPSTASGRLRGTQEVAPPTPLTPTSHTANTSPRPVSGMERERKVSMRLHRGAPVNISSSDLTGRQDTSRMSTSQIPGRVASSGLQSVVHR", "assay": "Kd Elect binding assay (DiscoverX)"}, "[3]": {"test_system": "alkaline phosphatase (ALPase)", "details": "concentration that enhances ALPase activity to 200% of control, ST2 cells; cited from earlier work"}, "[4]": {"test_system": "4T1 murine TNBC lung metastasis", "assay": "4T1 breast cancer metastasis survival after primary tumor removal", "type": "in vivo, mouse", "details": "15u 25 mg/kg oral b.i.d. after removal of the primary 4T1 tumor", "experimental": "4T1 is a murine triple-negative breast cancer (TNBC) cell line, which is highly metastatic to the lungs. […] Parental and CDK8-knockdown 4T1 cells (n=10) were injected orthotopically in the mammary fat pad and the primary tumors were removed 17 days later. Following surgery, all the mice eventually died with lung metastases. […] However, the loss of CDK8 was associated with a strong increase in the survival of mice (FIG. 10C). […]"}, "[5]": {"test_system": "PSA expression in CRPC cell line C4-2", "assay": "PSA expression in cell culture supernatant of C4-2 cells", "type": "cell-based", "details": "96 h; C4-2 culture supernatant, 4-day treatment, FBS-supplemented regular media", "description": "CDK8/19 inhibition decreases the expression of certain androgen-receptor (AR) inducible genes including PSA, the most common marker of prostate cancer, and the growth of castration-refractory prostate cancers (CRPC)."}, "CSNK1E": {"biological_target": "CSNK1E (Homo sapiens, UniProt P49674)", "sequence (P49674 whole entry)": "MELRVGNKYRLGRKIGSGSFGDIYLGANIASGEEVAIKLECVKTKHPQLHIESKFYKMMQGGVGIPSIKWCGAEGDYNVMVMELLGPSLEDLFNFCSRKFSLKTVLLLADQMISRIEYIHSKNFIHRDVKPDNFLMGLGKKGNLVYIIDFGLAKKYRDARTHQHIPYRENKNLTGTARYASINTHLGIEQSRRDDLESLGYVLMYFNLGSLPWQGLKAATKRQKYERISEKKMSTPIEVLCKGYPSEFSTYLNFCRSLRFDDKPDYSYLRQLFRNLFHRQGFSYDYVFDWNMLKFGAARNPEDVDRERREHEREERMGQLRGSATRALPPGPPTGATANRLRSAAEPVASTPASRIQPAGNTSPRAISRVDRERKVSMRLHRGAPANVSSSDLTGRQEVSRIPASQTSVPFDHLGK", "assay": "Kd Elect binding assay (DiscoverX)"}, "MYC-CAP-CR cells": {"test_system": "MYC-CAP-CR cells", "assay": "Long-term clonogenic assay, MYC-CaP-CR", "type": "cell-based, murine", "details": "1 μM Senexin B, 1 μM 15u, 5 μM enzalutamide", "description": "MYC-CaP-CR cells (Ellis L. et al., 2012. Prostate 72(6):587-591) were selected for castration resistance from genetically engineered MYC-CaP cells that express MYC from an AR-responsive promoter (Watson P A, et al., 2005. Cancer Res 65(24):11565-11571). Castration resistance in these cells is associated with the overexpression of full-length AR rather than an AR variant, such as AR-V7 in 22rv1 (Olson B M, et al., 2017. Cancer immunology research 5(12):1074-1085)."}, "[6]": {"assay": "MTD, medicated diet 4 or 5 weeks, CD-1 mice", "type": "in vivo, mouse", "details": "female CD-1 mice, 1000 ppm medicated diet, first week", "experimental": "In another long-term MTD in vivo assay, groups of male and female CD-1 mice were fed regular diet (control) or 15u-medicated diet (500 ppm or 1000 ppm) for 4 or 5 weeks (FIG. 16B). The daily doses of 500 ppm and 1000 ppm groups were estimated to be about 50-100 mg/kg and 100-200 mg/kg, respectively, based on daily diet consumption."}, "[7]": {"test_system": "luciferase-expressing MV4-11 cells", "assay": "MV4-11 leukemia in female NSG mice (BLI)", "type": "in vivo, mouse", "details": "for inhibition of leukemia growth: 23 days, BLI"}, "[8]": {"assay": "Oral PK by formulation, male Sprague Dawley rats 30 mg/kg", "type": "in vivo, rat", "details": "oral 30 mg/kg", "experimental": "We have also compared the PK of Suspension Vehicle 1 and Liquid formulation 2 in male Sprague Dawley rats, after oral administration at 30 mg/kg."}, "[9]": {"assay": "MTD, oral gavage b.i.d. 14 days, CD-1 mice", "type": "in vivo, mouse", "details": "for detrimental effects: 14 days", "experimental": "The highest dose (120 mg/kg b.i.d.) caused about 10% body weight loss in female mice after 7-10 days of treatment but no further deterioration was observed through the rest of the treatment period (FIG. 16A)."}},
  "note": "pIC50, pKd: −log10 of the molar value.",
  "data": [
    {"compound": "CN(C)C(=O)c1ccc(N2CCCN(c3ccnc4sc(C(N)=O)c(N)c34)CC2)cc1", "note": "[Compound 15u, 3-amino-4-(4-(4-(dimethylcarbamoyl)phenyl)-1,4-diazepan-1-yl)thieno[2,3-b]pyridine-2-carboxamide]", "values": [
      {"measurement": "amount of the compound in the liquid phase", "setting": "[1]; 5% DMSO, 20% HPBCD", "result": 0.2, "unit": "mg/mL"},
      {"measurement": "solubility", "setting": "[1]; Liquid formulation 1, pH 2.1, aqueous with cosolvent or surfactant or cyclodextrin", "result": "~5000", "unit": "µg/mL"},
      {"measurement": "solubility", "setting": "[1]; Liquid formulation 2, organic solvent or mixture", "result": "≤ 20000", "unit": "µg/mL"},
      {"measurement": "solubility", "setting": "[1]; aqueous solution, pH 7, water", "result": "< 10", "unit": "µg/mL"},
      {"measurement": "Maximum Solubility", "setting": "[2]; Capryol 90", "result": 2.9, "unit": "mg/g"},
      {"measurement": "Maximum Solubility", "setting": "[2]; Crodamol GMCC SS", "result": 5.5, "unit": "mg/g"},
      {"measurement": "Maximum Solubility", "setting": "[2]; Gelucire 44/14", "result": 3.4, "unit": "mg/g"},
      {"measurement": "Maximum Solubility", "setting": "[2]; Kolliphor EL", "result": 1.3, "unit": "mg/g"},
      {"measurement": "Maximum Solubility", "setting": "[2]; Labrafac PG", "result": 0.0, "unit": "mg/g"},
      {"measurement": "Maximum Solubility", "setting": "[2]; Labrafil M2125CS", "result": 0.4, "unit": "mg/g"},
      {"measurement": "Maximum Solubility", "setting": "[2]; Labrasol", "result": 5.4, "unit": "mg/g"},
      {"measurement": "Maximum Solubility", "setting": "[2]; Lecithin", "result": 1.9, "unit": "mg/g"},
      {"measurement": "Maximum Solubility", "setting": "[2]; Maisine CC", "result": 2.4, "unit": "mg/g"},
      {"measurement": "Maximum Solubility", "setting": "[2]; Miglyol 812N", "result": 0.0, "unit": "mg/g"},
      {"measurement": "Maximum Solubility", "setting": "[2]; Oleic Acid", "result": 0.8, "unit": "mg/g"},
      {"measurement": "Maximum Solubility", "setting": "[2]; Olive Oil", "result": 0.0, "unit": "mg/g"},
      {"measurement": "Maximum Solubility", "setting": "[2]; PEG 300", "result": 19.8, "unit": "mg/g"},
      {"measurement": "Maximum Solubility", "setting": "[2]; PEG 400", "result": 11.8, "unit": "mg/g"},
      {"measurement": "Maximum Solubility", "setting": "[2]; PEG 600", "result": 18.3, "unit": "mg/g"},
      {"measurement": "Maximum Solubility", "setting": "[2]; Peceol", "result": 2.5, "unit": "mg/g"},
      {"measurement": "Maximum Solubility", "setting": "[2]; Sesame Oil", "result": 0.0, "unit": "mg/g"},
      {"measurement": "Maximum Solubility", "setting": "[2]; Span 20", "result": 8.0, "unit": "mg/g"},
      {"measurement": "Maximum Solubility", "setting": "[2]; Span 80", "result": 1.4, "unit": "mg/g"},
      {"measurement": "Maximum Solubility", "setting": "[2]; Transcutol HP", "result": 3.4, "unit": "mg/g"},
      {"measurement": "Maximum Solubility", "setting": "[2]; Tween 80", "result": 1.9, "unit": "mg/g"},
      {"measurement": "Maximum Solubility", "setting": "[2]; Vitamin E TPGS", "result": 14.6, "unit": "mg/g"},
      {"measurement": "XRPD Pattern (API = A)", "setting": "[2]; solid collected from Capryol 90", "result": "A"},
      {"measurement": "XRPD Pattern (API = A)", "setting": "[2]; solid collected from Crodamol GMCC SS", "result": "A"},
      {"measurement": "XRPD Pattern (API = A)", "setting": "[2]; solid collected from Kolliphor EL", "result": "A"},
      {"measurement": "XRPD Pattern (API = A)", "setting": "[2]; solid collected from Labrafac PG", "result": "A"},
      {"measurement": "XRPD Pattern (API = A)", "setting": "[2]; solid collected from Labrafil M2125CS", "result": "A"},
      {"measurement": "XRPD Pattern (API = A)", "setting": "[2]; solid collected from Labrasol", "result": "A"},
      {"measurement": "XRPD Pattern (API = A)", "setting": "[2]; solid collected from Lecithin", "result": "A"},
      {"measurement": "XRPD Pattern (API = A)", "setting": "[2]; solid collected from Maisine CC", "result": "A"},
      {"measurement": "XRPD Pattern (API = A)", "setting": "[2]; solid collected from Miglyol 812N", "result": "A"},
      {"measurement": "XRPD Pattern (API = A)", "setting": "[2]; solid collected from Oleic Acid", "result": "A"},
      {"measurement": "XRPD Pattern (API = A)", "setting": "[2]; solid collected from Olive Oil", "result": "A"},
      {"measurement": "XRPD Pattern (API = A)", "setting": "[2]; solid collected from PEG 300", "result": "A"},
      {"measurement": "XRPD Pattern (API = A)", "setting": "[2]; solid collected from PEG 400", "result": "A"},
      {"measurement": "XRPD Pattern (API = A)", "setting": "[2]; solid collected from PEG 600", "result": "A"},
      {"measurement": "XRPD Pattern (API = A)", "setting": "[2]; solid collected from Peceol", "result": "A"},
      {"measurement": "XRPD Pattern (API = A)", "setting": "[2]; solid collected from Sesame Oil", "result": "A"},
      {"measurement": "XRPD Pattern (API = A)", "setting": "[2]; solid collected from Span 20", "result": "A"},
      {"measurement": "XRPD Pattern (API = A)", "setting": "[2]; solid collected from Span 80", "result": "A"},
      {"measurement": "XRPD Pattern (API = A)", "setting": "[2]; solid collected from Tween 80", "result": "A"},
      {"measurement": "pKd", "setting": "CSNK1D", "result": 6.07},
      {"measurement": "ALP activity Assay EC200", "setting": "[3]", "result": 31.9, "unit": "nM"},
      {"measurement": "mouse survival of the metastatic disease", "setting": "[4]", "result": "significantly increased mouse survival"},
      {"measurement": "pIC50", "setting": "[5]", "result": 7.55},
      {"measurement": "pKd", "setting": "CSNK1E", "result": 6.55},
      {"measurement": "MYC-CaP-CR colony formation", "setting": "MYC-CAP-CR cells", "result": "decreased MYC-CaP-CR colony formation"},
      {"measurement": "weight loss", "setting": "[6]", "result": "5-10%"},
      {"measurement": "inhibition of leukemia growth", "setting": "[7]; 30 mg/kg twice daily by gavage", "result": 94, "unit": "%"},
      {"measurement": "inhibition of leukemia growth", "setting": "[7]; medicated chow 1 g/kg", "result": 99.7, "unit": "%"},
      {"measurement": "survival post treatment", "setting": "[7]; oral gavage", "result": "superior survival rates"},
      {"measurement": "increase of AUC, Liquid formulation 2 vs Suspension Vehicle 1", "setting": "[8]", "result": "> 3", "unit": "fold"},
      {"measurement": "body weight loss", "setting": "[9]; female CD-1 mice, 120 mg/kg b.i.d., after 7-10 days of treatment", "result": "about 10%"},
      {"measurement": "detrimental effects", "setting": "[9]; female CD-1 mice, doses up to 60 mg/kg b.i.d.", "result": "No detrimental effects were observed"},
      {"measurement": "detrimental effects", "setting": "[9]; male CD-1 mice, 60 and 120 mg/kg b.i.d.", "result": "No detrimental effects were observed"}
    ]}
  ]
}
